What all share (assay): DTP human tumour cell line panel, 48 h
The subject of assay [1] is 786-0 renal.
Assay [2] deals with HL-60(TB) leukemia.
The subject of assay [3] is HOP-62 NSCLC.
Assay [4] has as its system KM12 colon.
Assay [5] relates to MCF7 breast.
The subject of assay [6] is NCI-H226 lung.
Assay [7] relates to NCI-H23 lung.
The test system of assay [8] is SN12C renal.
For assay [9], the system named is T-47D breast.
The test system of assay [10] is TK-10 renal.

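A five-concentration, 48-hour dose response in 96-well plates underlies each endpoint, interpolated linearly between surrounding concentrations. GI50: concentration for 50% inhibition of growth. TGI: total growth inhibition.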

`Cc1cc(Cl)nc(N(CCCNc2ccnc3cc(Cl)ccc23)Cc2ccco2)n1`: the GI50 in assay [1] is 1.91 µM; in assay [2], 2.05 µM; in [3], 1.59 µM; in assay [4], 2.79 µM; in assay [5], 1.81 µM; in assay [6] it was 1.3 µM. The GI50 in assay [7] is 1.98 µM; in [8], 2.45 µM; in [9] it was 1.73 µM; in assay [10], 2.7 µM. Moreover, the TGI is 4.61 µM in assay [1]; 5.14 µM in assay [2]; 5.65 µM in assay [3]; 11.5 µM in assay [4]; 6.1 µM in assay [5]; 6.91 µM in assay [6]. Further, the TGI was 7.68 µM in [7], 9.87 µM in [8], 6.43 µM in assay [9] and 11.1 µM in [10].
Regarding `O=C(CC(Cl)=C(Cl)Cl)c1cccc(Cl)c1Cl`, the GI50 in assay [1] is 44.7 µM; in assay [2], 64.8 µM; in assay [3], 82.1 µM; in assay [4] it was over 100 µM; in assay [5], 66.8 µM; in assay [6], 75.1 µM. Also, the GI50 in assay [7] is 63.2 µM; in assay [8], 46.9 µM; in [9], 42.5 µM; in assay [10], 28.2 µM. The TGI in assay [1], in assay [2], in [3], in assay [4], in assay [5] and in assay [6] was over 100 µM in each case. For the same compound, the TGI in assay [7], in assay [8], in [9] and in assay [10] was over 100 µM each time.
For `C=C1C(=O)OC2/C=C(/C)C(OC(C)=O)C/C=C(\C)C(OC(=O)C3(C)OC3C)C(O)C12` (stereo not given), the TGI in assay [1], in [2], in [3], in assay [4], in [5] and in assay [6] was over 100 µM each time. Also, the TGI in [7], in [8], in [9] and in [10] was over 100 µM throughout.
For `CC[n+]1c(/C=C/C=C2\N(C)c3ccccc3C2(C)C)sc2ccccc21`, the GI50 in [1] was 4.33 µM; in [2] it was 5.16 µM; in [3], 4.47 µM; in assay [4], 4.46 µM; in assay [5], 4.42 µM; in assay [6], 4.55 µM. In addition, the GI50 in assay [7] is 2.75 µM; in assay [8], 4.16 µM; in assay [9], 4.65 µM; in assay [10] it was 5.06 µM. Besides, the TGI in [1] came out at 8.38 µM; in [2] it was 12.1 µM; in assay [3], 9.31 µM; in assay [4], 8.7 µM; in [5] it was 10.4 µM; in assay [6] it was 12.2 µM. In addition, the TGI amounted to 7.09 µM in assay [7], 8 µM in assay [8], 11.8 µM in assay [9] and 13.2 µM in assay [10].
On to `CN1CSC(=S)N(Cc2ccccc2)C1`, for which the GI50 was 12 µM in assay [1]; 4.03 µM in assay [2]; 18.6 µM in [3]; 1.87 µM in assay [4]; 3.18 µM in assay [5]; 70.5 µM in [6]. For the same compound, the GI50 was 14.1 µM in assay [7], 15.4 µM in [8], 4.78 µM in assay [9] and 3.39 µM in assay [10]. Besides, the TGI in assay [1] is 44.2 µM; in [2], 97.3 µM; in assay [3] it was over 100 µM; in assay [4], 4.19 µM; in assay [5] it was 17.6 µM; in [6], over 100 µM. In addition, the TGI turned out to be 36.6 µM in [7], 35.7 µM in assay [8], 23.4 µM in [9] and 9.41 µM in assay [10].
As for `N#CC1c2ccccc2C=CN1C(=O)N(c1ccccc1)c1ccccc1` (stereo not given), the GI50 was 4.32 µM in assay [1]; 2.11 µM in assay [2]; 13.6 µM in assay [3]; 6.38 µM in assay [4]; 2.9 µM in [5]; 3.76 µM in assay [6]. The GI50 was 4.09 µM in [7], 3 µM in [8], 1.87 µM in [9] and 1.89 µM in assay [10]. The TGI was found to be 15.2 µM in assay [1]; 6.24 µM in [2]; 26.7 µM in assay [3]; 19.3 µM in assay [4]; 9.56 µM in assay [5]; 15.2 µM in assay [6]. Further, the TGI in [7] was 19.3 µM; in [8], 10.8 µM; in assay [9] it was 4.45 µM; in assay [10] it was 3.58 µM.
With `O=c1[nH]cnc2c1nnn2CCCCCCCCCCCCn1nnc2c(=O)[nH]cnc21`, the TGI in assay [1] is 60.5 µM; in assay [2], over 100 µM; in [3], 54 µM; in [4], over 100 µM; in assay [5], over 100 µM; in assay [6] it was 63.5 µM. Also, the TGI is 39.2 µM in assay [7], over 100 µM in assay [8], over 100 µM in [9] and 50.7 µM in assay [10].
Consider `Cn1cc(C2=C(c3cn(CCCCCSC(=N)N)c4ccccc34)C(=O)NC2=O)c2ccccc21`, for which the GI50 in [1] is 3.16 µM; in assay [2], 3.62 µM; in assay [3], 3.96 µM; in assay [4], 2.08 µM; in assay [5] it was 1.22 µM; in [6] it was 4.09 µM. For the same compound, the GI50 in [7] is 3.5 µM; in [8], 2.67 µM; in [9], 3.46 µM; in assay [10], 2.66 µM. Further, the TGI in assay [1] turned out to be 7 µM; in assay [2], 7.85 µM; in assay [3], 7.59 µM; in [4], 5.41 µM; in assay [5] it was 4.97 µM; in assay [6], 9.96 µM. The TGI in [7] was found to be 7.56 µM; in assay [8], 6.01 µM; in [9], 9.63 µM; in assay [10], 5.71 µM.
